From US11479802B2, “Assays for screening activity of modulators of members of the hydroxy steroid (17-beta) dehydrogenase (HSD17B) family” (Regeneron Pharmaceuticals, Inc., priority 2017, dated 2022)

Target: T1, human HSD17B13 (Homo sapiens, UniProt Q7Z5P4)
T1 sequence (Q7Z5P4 20-300): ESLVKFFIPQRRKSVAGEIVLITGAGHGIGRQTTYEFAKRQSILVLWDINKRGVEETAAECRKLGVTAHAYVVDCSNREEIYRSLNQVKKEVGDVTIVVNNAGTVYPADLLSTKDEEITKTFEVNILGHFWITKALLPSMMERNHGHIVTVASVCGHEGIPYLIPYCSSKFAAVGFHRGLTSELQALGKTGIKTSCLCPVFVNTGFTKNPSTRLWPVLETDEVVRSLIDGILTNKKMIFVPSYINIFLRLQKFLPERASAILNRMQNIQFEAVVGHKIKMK
Test: Substrate screening of steroid and bioactive lipid libraries against purified recombinant HSD17B13 (NADH-linked luciferase assay)
Assay type: biochemical
Conditions: for HSD17B13 Enzymatic Activity Relative Light Units: 500 μM NAD+, 100 ng enzyme, 3 hours at 23° C.; for HSD17B13 Enzymatic Activity Percent Estradiol Control: normalized to 50 μM estradiol after subtraction of 5% DMSO
Method: To understand the functional consequences of premature truncation of the HSD17B13 protein due to rs72613567:TA (the associated variant, rs72613567, is an insertion of an adenine adjacent to the donor splice site of exon six (TA allele)), the enzymatic activity of isoforms A and D was evaluated in vitro using recombinant protein and nicotinamide […] dinucleotide as cofactor. Reactions were performed in a final volume of 40 μl of assay buffer (0.2 M Tris-HCl, pH 7.5) which contained 500 μM NAD^+, 5 μM bioactive lipid or 50 μM steroid (all in a final concentration of 5% DMSO), and 100 ng of recombinant human HSD17B13. Reactions were incubated for 3 hours, at 23° C., after which an equal volume detection reagent was added. Following a 1 hour incubation at 23° C., the relative light units (RLUs) were measured on an Envision Plate Reader (Perkin Elmer). Raw RLU values were normalized as percent of control (50 μM estradiol) following subtraction of negative control (5% DMSO) using the following formula: Percent of control (POC)=100×(Sample (RLU)−Negative CTRLaverage)/(Positive CTRLaverage−Negative CTRLaverage).

[1] = Bioactive Lipid Library, 5 μM bioactive lipid (Estradiol Control 50 μM)
[2] = Bioactive Lipid Library, 5 μM bioactive lipid

| SMILES | HSD17B13 Enzymatic Activity Relative Light Units [1] | HSD17B13 Enzymatic Activity Percent Estradiol Control [2] | HSD17B13 Enzymatic Activity Relative Light Units (Steroid Library, 50 μM steroid) | HSD17B13 Enzymatic Activity Percent Estradiol Control (Steroid Library, 50 μM steroid) |
| --- | --- | --- | --- | --- |
| CCCCC/C=C\C/C=C\C=C\[C@@H](O)CCCCCCC(=O)O [8(S)-HETrE] | 412960 RLU | 9.38% |  |  |
| CC/C=C\C[C@H](O)/C=C/[C@@H]1[C@H](C/C=C\CCCC(=O)O)[C@@H](O)C[C@H]1O [8-iso Prostaglandin F3α] | 361040 RLU | 6.16% |  |  |
| CCCCCC(=O)CC[C@@H]1[C@H](C/C=C\CCCC(=O)O)[C@@H](O)C[C@H]1O [8-iso-13,14-dihydro-15-keto Prostaglandin F2α] | 212520 RLU | −5.58% |  |  |
| CCCCCC(=O)/C=C/[C@H]1C(O)CC(=O)[C@H]1C/C=C\CCCC(=O)O (stereo partly shown) [8-iso-15-keto Prostaglandin E2] | 262160 RLU | −1.65% |  |  |
| CCCCCC(=O)/C=C/[C@@H]1[C@H](C/C=C\CCCC(=O)O)[C@@H](O)C[C@H]1O [8-iso-15-keto Prostaglandin F2α] | 312360 RLU | 2.31% |  |  |
| CCCCC/C=C\C/C=C\C[C@@H](O)/C=C/C=C\CCCC(=O)O [9(R)-HETE] | 1656640 RLU | 101.86% |  |  |
| CCCCC/C=C\C=C\[C@H](O)CCCCCCCC(=O)O [9(R)-HODE] | 413280 RLU | 9.40% |  |  |
| CC/C=C\C/C=C\C/C=C\C[C@H](O)/C=C/C=C\CCCC(=O)O [9(S)-HEPE] | 564200 RLU | 20.63% |  |  |
| CCCCC/C=C\C/C=C\C[C@H](O)/C=C/C=C\CCCC(=O)O [9(S)-HETE] | 497640 RLU | 15.68% |  |  |
| CCCCC/C=C\C=C\[C@@H](O)CCCCCCCC(=O)O [9(S)-HODE] | 539560 RLU | 18.79% |  |  |
| CC/C=C\C/C=C\C=C\[C@@H](O)CCCCCCCC(=O)O [9(S)-HOTrE] | 586800 RLU | 22.31% |  |  |
| CCCCC/C=C\C=C\[C@H](CCCCCCCC(=O)O)OO [9(S)-HpODE] | 219240 RLU | −5.03% |  |  |
| CCCCCCCC/C=C(\CCCCCCCC(=O)O)[N+](=O)[O-] [9-Nitrooleate] | 31600 RLU | −22.16% |  |  |
| CCCCC/C=C\C=C\C(=O)CCCCCCCC(=O)O [9-OxoODE] | 359280 RLU | 5.39% |  |  |
| CCCCCCCC/C(=C\CCCCCCCC(=O)O)[N+](=O)[O-] [10-Nitrooleate] | 28200 RLU | −22.42% |  |  |
| CCCCC/C=C\C[C@H]1O[C@H]1C/C=C\C/C=C\CCCC(=O)NCCO [11(12)-EET Ethanolamide] | 440800 RLU | 8.74% |  |  |
| CCCCC/C=C\C=C\[C@H](O)CCCCCCCCCC(=O)O [11(R)-HEDE] | 1674200 RLU | 103.16% |  |  |
| CC/C=C\C/C=C\C=C\[C@H](O)C/C=C\C/C=C\CCCC(=O)O [11(R)-HEPE] | 940920 RLU | 48.64% |  |  |
| CCCCC/C=C\C=C\[C@H](O)C/C=C\C/C=C\CCCC(=O)O [11(R)-HETE] | 1064120 RLU | 57.80% |  |  |

| SMILES | HSD17B13 Enzymatic Activity Relative Light Units [1] | HSD17B13 Enzymatic Activity Percent Estradiol Control [2] | HSD17B13 Enzymatic Activity Relative Light Units (Steroid Library, 50 μM steroid) | HSD17B13 Enzymatic Activity Percent Estradiol Control (Steroid Library, 50 μM steroid) |
| --- | --- | --- | --- | --- |
| CCCCC/C=C\C=C\[C@@H](O)CCCCCCCCCC(=O)O [11(S)-HEDE] | 1056440 RLU | 57.23% |  |  |
| CC/C=C\C/C=C\C=C\[C@@H](O)C/C=C\C/C=C\CCCC(=O)O [11(S)-HEPE] | 1525600 RLU | 92.11% |  |  |
| CCCCC/C=C\C=C\[C@@H](O)C/C=C\C/C=C\CCCC(=O)O [11(S)-HETE] | 696400 RLU | 30.46% |  |  |
| [2H]C([2H])(/C=C\C[C@H]1[C@@H](O)CC(=O)O[C@@H]1/C=C/[C@@H](O)CCCCC)C([2H])([2H])CC(=O)O [11-dehydro Thromboxane B2-d4] | 366280 RLU | 3.11% |  |  |
| CCCCCC(O)C=CC1OC(=O)CC(O)C1CC=CCCCC(=O)O (stereo not shown) [11-dehydro Thromboxane B2] | 349160 RLU | 5.22% |  |  |
| CC/C=C\C[C@H](O)/C=C/[C@H]1OC(=O)C[C@H](O)[C@@H]1C/C=C\CCCC(=O)O [11-dehydro Thromboxane B3] | 322480 RLU | 3.11% |  |  |
| CCCCCC(O)C=CC1OC(=O)CC(O)C1CC=CCC(=O)O (stereo not shown) [11-dehydro-2,3-dinor Thromboxane B2] | 183120 RLU | −7.90% |  |  |
| C[C@]12CC[C@@H](O)C[C@@H]1CC[C@@H]1[C@@H]2[C@@H](O)C[C@]2(C)C(=O)CC[C@@H]12 [11beta-Hydroxyandrosterone] |  |  | 224720 RLU | 1.12% |
| CCCCCC(=O)CC[C@@H]1[C@@H](C/C=C\CCCC(=O)O)[C@@H](O)C[C@@H]1O [11β-13,14-dihydro-15-keto Prostaglandin F2α] | 310000 RLU | 2.13% |  |  |
| CCCCC(C)(O)C/C=C/[C@H]1[C@@H](O)CC(=O)[C@@H]1CCCCCCC(=O)OC (stereo partly drawn) [11β-Misoprostol] | 331200 RLU | 3.80% |  |  |
| CCCCC[C@H](O)/C=C/[C@H]1[C@@H](O)CC(=O)[C@@H]1C/C=C\CCCC(=O)O [11β-Prostaglandin E2] | 354840 RLU | 5.67% |  |  |
| CCCCC/C=C\C[C@@H](O)/C=C/C=C\C/C=C\CCCC(=O)O [12(R)-HETE] | 1932320 RLU | 122.36% |  |  |
| CCCCC/C=C\C[C@@H](/C=C/C=C\C/C=C\CCCC(=O)O)OO [12(S)-HpETE] | 199760 RLU | −6.47% |  |  |
| CCCCCCCC[C@@H](O)C=CC=CC=C[C@@H](O)CCCC(=O)O [12-epi Leukotriene B3] | 481880 RLU | 15.71% |  |  |
| CCCCC/C=C\C[C@H](O)/C=C/C=C/C=C\[C@@H](O)CCCC(=O)O [12-epi Leukotriene B4] | 389240 RLU | 8.39% |  |  |
| CCCCC[C@@H](O)/C=C/C=C\CCCCCCCC(=O)O [13(R)-HODE] | 1105960 RLU | 60.91% |  |  |
| CCCCC[C@H](O)/C=C/C=C\CCCCCCCC(=O)O [13(S)-HODE] | 792800 RLU | 37.62% |  |  |
| CCCCC[C@H](O)/C=C/C=C\C/C=C\CCCCC(=O)O [13(S)-HOTrE(γ)] | 458840 RLU | 12.79% |  |  |
| CC/C=C\C[C@H](O)/C=C/C=C\CCCCCCCC(=O)O [13(S)-HOTrE] | 528240 RLU | 17.95% |  |  |
